# Data from the NIST ThermoML archive (doi:10.1021/acs.jced.7b00875).
# Numbers after ± are expanded uncertainties.
# Columns and labels:
# [1] = refractive index (Na D-line) (dimensionless); details: 293.15 K; 101.33 kPa; Liquid; Standard Abbe refractometry
# [2] = Liquid, Ebulliometric method (Recirculating still)
Structure (SMILES),refractive index [1],vapor or sublimation pressure ([2]; 323.21 K) [kPa],vapor or sublimation pressure ([2]; 333.21 K) [kPa],vapor or sublimation pressure ([2]; 343.21 K) [kPa],vapor or sublimation pressure ([2]; 328.17 K) [kPa],vapor or sublimation pressure ([2]; 338.17 K) [kPa],vapor or sublimation pressure ([2]; 348.16 K) [kPa]
CCCCCCCCC [nonane],1.4074 ± 0.002,2.417 ± 0.92,4.027 ± 0.92,6.331 ± 0.92,–,–,–
CCCCCCCCCC [decane],1.4122 ± 0.002,–,–,–,1.18 ± 0.92,1.93 ± 0.92,3.24 ± 0.92
CCO [ethanol],1.3616 ± 0.002,29.58 ± 0.97,47.04 ± 1,72.39 ± 1.1,37.53 ± 0.98,58.6 ± 1.1,88.83 ± 1.1
